According to US6989270B1, “Using polyamide nucleic acid oligomers to engender a biological response” (Mayo Foundation for Medical Education and Research, priority 1997, dated 2006):

Key:
[1] = system: neurotensin receptor-1 (NTR1); test: Hot plate test of NT-mediated anti-nociception in PNA-treated rats; type: in vivo, rat
Method: Under an Institutional Animal Care and Use Committee approved protocol and under sterile conditions male Sprague-Dawley rats (180-200 g) were stereotaxically implanted with stainless steel guide cannulae (26 gauge) into the PAG under sodium pentobarbital anesthesia (50 mg/kg, i.p.) as described in detail elsewhere (Jensen T. S. and Yaksh T. L., Brain Res. 372:301-312 (1986) and Al-Rodhan N.R.F., Brain Res. 557:227-235 (1991)). The coordinates used for PAG cannulations are -5.6 mm posterior from bregma, 1.0 mm lateral from bregma, and 5.5 mm down from the dura. The guide cannula was pre-measured to be 5.5 mm (Plastics One, Roanoke, Va.) and the internal cannula was ordered to fit below the pedestal with a 2.0 mm projection. The guide cannula was then fixed to the skull using a stainless steel screw (⅛ inch) and cranioplastic cement. A stainless steel stilette was then placed in each guide to keep it patent and free of debris. Immediately after surgery, the animals were allowed to recover before returning them to an individual housing cage. All injections began 5-7 days after surgery.
NTR1-PNA oligomers were injected, using a Hamilton digital syringe, into the PAG through the internal cannula, which extended 2 mm below the guide tip. The internal cannula was connected with a length of polyethylene tubing (PE-20) filled with saline solution. A small air bubble was introduced into the tubing to separate the saline from a solution containing 1.3 nmol of NTR1-PNA oligomers in artificial cerebral-spinal fluid (ACSF). The volume of the solution containing the NTR1-PNA oligomers was about 1.0 μl. The bubble was used to confirm the movement of this solution through the polyethylene tubing.
NTR1-PNA oligomers were injected into the PAG of each rat three times, on days -4, -2, and 0. Controls included rats receiving no injections, rats receiving injections of ACSF only, and rats receiving PNA oligomers having sequence specificity for an unrelated polypeptide, the mu-1 morphine receptor (MU1R). The sequence of MU1R-PNA is 5′-[…]-3′ (SEQ ID NO: 2).
The injection of NT in the PAG of rats produces a potent anti-nociceptive response as well as hypothermia. These responses are mediated by specific NT receptors and are not inhibited by naloxone. A very sensitive and reliable hot plate test was used to measure the anti-nociceptive effects of NT (Al-Rodhan N.R.F., Brain Res. 557:227-235 (1991)).
NTR1-PNA, MU1R-PNA, and ACSF treated as well as untreated rats were analyzed using the hot plate test for NT. One day after the last treatment, each rat was analyzed as follows. Fifteen minutes prior to testing, a pre-drug latency measurement was made by placing the rat on a hot plate maintained at a temperature of 52±0.15° C. and recording the time elapsed before the rat licked either of its hindpaws. In addition, the temperature of the rat was taken using a thermister probe inserted 3 cm in the rectum to determine the pre-drug body temperature (BT). After making these measurement, an appropriate dose of NT (18 nmol) at a volume of about 0.5 ul was administered into the PAG as described above. Thirty minutes after administering NT, the rat was again placed on a hot plate maintained at a temperature of 52±0.15° C. and the latency between the time the rat was placed on the surface and the time it licked either of its hindpaws was measured. […] Hot plate tests were scored as the percent of maximum possible effect (% MPE) and calculated using the following equation: % MPE=[(post-drug latency−pre-drug latency)/(cut-off−pre-drug latency)]×100; where the cut-off is 30 seconds. […] This average for untreated control rats was used to set the baseline MPE value to 100. Immediately after the 30 second hot plate test, BT was taken to measure NT-induced hypothermia using a thermister probe inserted 3 cm in the rectum. […] All test situations were compared to these baseline values derived from NT responsive untreated controls. […]

[2] = system: neurotensin receptor-1 (NTR1); test: NT-induced hypothermia (rectal body temperature) in PNA-treated rats; type: in vivo, rat; settings: for body temperature change in response to NT: NT 18 nmol 24 hours later
Method: NTR1-PNA, MU1R-PNA, and ACSF treated as well as untreated rats were analyzed using the hot plate test for NT. One day after the last treatment, each rat was analyzed as follows. Fifteen minutes prior to testing, a pre-drug latency measurement was made by placing the rat on a hot plate maintained at a temperature of 52±0.15° C. and recording the time elapsed before the rat licked either of its hindpaws. In addition, the temperature of the rat was taken using a thermister probe inserted 3 cm in the rectum to determine the pre-drug body temperature (BT). After making these measurement, an appropriate dose of NT (18 nmol) at a volume of about 0.5 ul was administered into the PAG as described above. Thirty minutes after administering NT, the rat was again placed on a hot plate maintained at a temperature of 52±0.15° C. and the latency between the time the rat was placed on the surface and the time it licked either of its hindpaws was measured. […] Hot plate tests were scored as the percent of maximum possible effect (% MPE) and calculated using the following equation: % MPE=[(post-drug latency−pre-drug latency)/(cut-off−pre-drug latency)]×100; where the cut-off is 30 seconds. […] This average for untreated control rats was used to set the baseline MPE value to 100. Immediately after the 30 second hot plate test, BT was taken to measure NT-induced hypothermia using a thermister probe inserted 3 cm in the rectum. […] All test situations were compared to these baseline values derived from NT responsive untreated controls.
(§1) AS-NTR1-PNA, mismatch-AS-NTR1-PNA, and MU1R-PNA were injected intraperitoneally (10 mg/kg) independently, into separate groups of male Sprague-Dawley rats (Harlan, Prattville, Ala.). The sense-NTR1-PNA oligomer, however, was microinjected directly into the periaqueductal gray (PAG; 5 μg), the major area in the brain involved with perception of pain (nociception). […] Thirty minutes after receiving NT, animals were scored for anti-nociception (hot plate at 52° C.) and hypothermia (rectal probe). Again, anti-nociception scores were calculated as percent of maximum possible effect (% MPE) with the following equation: % MPE=[(post-drug latency time minus pre-drug latency time)/(cut-off time minus pre-drug latency time)]×100; where the cut-off time (i.e., the time when the animal was removed from the device) was 30 seconds for a hot plate test and 12 seconds for a tail flick test. Statistical analysis was done using the rank sum test.

MU1R mRNA = test: Quantitative RT-PCR of MU1R mRNA relative to GAPDH; type: in vivo; settings: treated intracranially, 5 μg
Method: (§2) Messenger RNA (mRNA) levels for NTR1, MU1R, and GAPDH were measured in control and PNA-treated animals. Briefly, total RNA was isolated from approximately 20 mg of tissue using the S.N.A.P. total RNA Isolation Kit (Invitrogen, Carlsbad, Calif.). Quantitative RT-PCR was performed on treated and control animals using GAPDH as an internal standard and PCR fragments of the human NTR and of a GAPDH deletion mutant as exogenous standards. First strand cDNA was synthesized from approximately 500 ng of total RNA using the cDNA Cycle Kit (Invitrogen, Carlsbad, Calif.). PCR was performed on a GeneAmp PCR System 9600 (Perkin Elmer, Norwalk, Conn.) using end-labeled primer and TAq DNA Polymerase (Gibco-BRL, Gaithersburg, Md.). Products were separated on a 5% acrylamide gel containing 7 M urea, and detected using a Storm860 Phosphoimager (Molecular Dynamics, Sunnyvale, Calif.). Data were analyzed using ImageQuant Software (Molecular Dynamics, Sunnyvale Calif.). To control for any diurnal mRNA level fluctuations that may occur, the PNA injection time was controlled such that the tissue harvest time was identical in each animal group.

NTR1 mRNA = test: Quantitative RT-PCR of NTR1 mRNA relative to GAPDH; type: in vivo; settings: treated intracranially, 5 μg; at 8 hours
Method: as §2

[3] = system: plasma membrane serotonin transporter; test: Hyperactivity (activity chamber) after tranylcypromine challenge; type: in vivo, rat; settings: 5 mg/kg i.p., then 15 mg/kg TCP 48 hours later
Method: To test the ability of SERT-PNA oligomers to engender a biological response, e.g., a reduction of plasma membrane serotonin transporter expression, SERT-PNA oligomers were administered to rats with and without tranylcypromine (TCP), a MAO inhibitor.
A solution containing 5 mg/kg of SERT-PNA oligomers in saline was injected directly into the peritoneal cavity of male Sprague-Dawley rats (200-250 g). Each rat received a single injection on day zero and the volume injected was about 200 μl. Controls included rats receiving injections of saline only and injections of TCP only.
To monitor hyperactivity, an Opto-Varimex-Minor activity chamber (Columbus Instruments, Columbus, Ohio) was used. Briefly, this activity chamber records the number of times an animal disrupts an infrared beam while in a 42 cm by 42 cm chamber. Other signs of hyperactivity were noted by gross observation.

mu-1 receptor (MU1R) = test: Tail flick test of MOR-mediated anti-nociception in PNA-treated rats; type: in vivo, rat
Method: The injection of MOR into rats produces a potent anti-nociceptive response. This response is mediated by specific MOR receptors and is inhibited by naloxone. A very sensitive and reliable tail flick test was devised and used to measure the anti-nociceptive effects of MOR (D'Amour F. E. and Smith D. L, J. Pharm. Exp. Therap. 72:74-79 (1941)).
MU1R-PNA, NTR1-PNA, and ACSF treated as well as untreated rats were analyzed using the MOR-specific tail flick test. One day after the last treatment, each rat was analyzed as follows. Thirty minutes prior to testing, a pre-drug latency measurement was made by placing the tail of the restrained rat in oil maintained at a temperature of 60° C. and recording the time elapsed before the rat flicked its tail. After making this measurement, an appropriate dose of MOR (5 mg/kg of body weight) at a volume of about 200 μl was injected i.p. Thirty minutes after administering MOR, the restrained rat's tail was again placed in the oil maintained at 60° C. and the latency between the time the tail was placed in the oil and the time the rat flicked its tail was measured. […] Tail flick tests were scored as the percent of MPE and calculated using the following equation: % MPE=[(post-drug latency−pre-drug latency)/(cut-off−pre-drug latency)]×100; where the cut-off is 12 seconds. […] This average for untreated control rats was used to set the baseline A MPE value to 100. All test situations were compared to this baseline response value derived from MOR responsive untreated controls. To test the significance, data were analyzed using the Student's t-test with p<0.05 being considered significant.
as §1

[4] = 10 mg/kg intraperitoneally, NT 18 nmol into PAG 24 hours later
[5] = PNA injected into PAG on days -4, -2, 0, NT 18 nmol into PAG

mismatch-AS-NTR1-PNA: PNA oligomer like AS-NTR1-PNA with a mismatch at every third base pair, 5′-TATGGCACAGAC-3′ (SEQ ID NO:12) (all peptide nucleic acid (PNA); further chemistry not fully specified)
anti-nociception score (hot plate) after NT [1, 4]: 60 % MPE | body temperature change in response to NT ([2]; 10 mg/kg intraperitoneally): −1.3 °C

sense-NTR1-PNA: sense PNA oligomer for NTR1, complementary to AS-NTR1-PNA, 5′-GTTTGAGCAATG-3′ (SEQ ID NO:13) (all peptide nucleic acid (PNA); sense control PNA, further chemistry not fully specified)
change in MU1R/GAPDH ratio of mRNA (MU1R mRNA): no change | anti-nociception score (hot plate) after NT [1, 4]: 5.4±5.4 % MPE | anti-nociception score (hot plate) after NT ([1]; PNA microinjected into PAG (printed 5% g), NT 18 nmol 24 hours later): 14 % MPE | reduction in the NTR1/GAPDH ratio of mRNA (NTR1 mRNA): 50% | body temperature change in response to NT ([2]; 10 mg/kg intraperitoneally): −0.45±0.15 °C | body temperature change in response to NT ([2]; PNA into PAG, 5 μg): −0.5 °C

SERT-PNA: 12-mer antisense PNA oligomer to rat plasma membrane serotonin transporter, 5′-GCCAGATGTTGC-3′ (SEQ ID NO: 3) (all peptide nucleic acid (PNA); further chemistry not fully specified)
hyperactivity after TCP [3]: extreme hyperactivity | time to extreme hyperactivity after TCP treatment [3]: ≤ 10 min

MU1R-PNA: 14-mer antisense PNA oligomer to mu-1 receptor 5′ non-coding region, 5′-CAGCCTCTTCCTCT-3′ (SEQ ID NO: 2) (all peptide nucleic acid (PNA); further chemistry not fully specified)
anti-nociception score (hot plate) after NT [1, 4]: 82 % MPE | MPE (hot plate) response to NT challenge as percent of baseline response [1, 5]: indistinguishable from the baseline responses | time until which MOR-mediated anti-nociception remained significantly reduced (mu-1 receptor (MU1R); PNA injected into PAG on days -4, -2, 0): day twelve | responsiveness to MOR challenge (tail flick) (mu-1 receptor (MU1R); one day after single i.p. injection of 3 mg/kg): unable to respond to MOR challenge | BT (hypothermia) response to NT challenge as percent of baseline response [2, 5]: indistinguishable from the baseline responses
